# Assay results reported in patent publication US8129547B2, “Anticoagulation of human blood ex vivo” (priority 2006, dated 2012).
# Structures can show the parent of a compound that is named as a salt.
# Experiments:
# thrombocytes [1] = assay: Thrombocyte propagation on plastic object carriers, Example 4; type: cell-based, human; settings: PRP, 24 hours after blood sampling
# Protocol: (§1) For this purpose blood was taken within 1 hour from 12 healthy subjects. 1 aliquot of each of the 12 blood samples was anticoagulated with citrate and 1 other aliquot of the 12 blood samples was anticoagulated with a direct inhibitor of the blood coagulation factor Xa. For this purpose 9 parts of blood were mixed with 1 part of citrate (0.106 mol/l) or 1 part of inhibitor solution in a suitable concentration. Platelet-rich plasma (PRP) was manufactured by centrifuging at 164×g over 10 minutes. The thrombocytes in PRP were activated by induced aggregation according to Born with 5 μmols/l of ADP, 2 μg/ml of collagen and 0.5 mmol/l of arachidonic acid. Impedance full blood aggregometry was carried out with the Multiplate aggregometer and with 6.5 μmols/l of ADP, 3.2 μg/ml of collagen and 0.5 mmol/l of arachidonic acid. The analyses were conducted 1, 2, 3, 4, 5, 10 and 24 hours after blood sampling.
# On the contrary, less than 10% of the thrombocytes in RPR anticoagulated with citrate were still propagated 24 hours after blood sampling.
# thrombocytes [2] = assay: Induced aggregation of thrombocytes (Born in PRP, impedance full blood aggregometry) after anticoagulation, Example 4; type: cell-based, human; settings: 24 hours after sampling; ADP, collagen, arachidonic acid
# Protocol: as §1
# Factor VIIa = molecular target: T1, Factor VIIa (Homo sapiens, UniProt P08709); assay: Determination of Ki values, chromogenic substrate, Dixon evaluation: Factor VIIa; type: biochemical; settings: 25° C., tris buffer pH 8.0, substrate CH3SO2-D-phe-Gly-Arg-pNA
# T1 construct: purchased Haemochrom Diagnostica GmbH (Essen, D)
# T1 sequence (P08709 213-466 limits assumed): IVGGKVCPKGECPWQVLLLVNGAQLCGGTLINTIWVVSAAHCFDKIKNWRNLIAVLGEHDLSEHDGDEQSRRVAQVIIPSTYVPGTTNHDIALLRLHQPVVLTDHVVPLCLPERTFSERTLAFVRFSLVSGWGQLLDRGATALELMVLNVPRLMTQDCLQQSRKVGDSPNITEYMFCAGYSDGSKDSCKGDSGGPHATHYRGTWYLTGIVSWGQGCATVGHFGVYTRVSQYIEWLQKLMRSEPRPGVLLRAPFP
# T1 sequence (P08709 61-212 partner limits assumed): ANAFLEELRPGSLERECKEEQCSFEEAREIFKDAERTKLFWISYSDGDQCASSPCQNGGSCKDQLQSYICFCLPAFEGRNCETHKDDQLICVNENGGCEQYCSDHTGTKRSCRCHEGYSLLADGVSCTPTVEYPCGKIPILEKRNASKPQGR
# Text: (§2) The inhibitors used here are the commercially available exemplary inhibitors Pefabloc tPA/Xa (2,7-bis(4-amidinobenzylidene)-cyclopeptanone-(1), Pentapharm Ltd. Basel, Switzerland), CJ-FXa (benzylsulphonyl-D-arginyl-glycyl-4-amidinobenzylamide, Haemochrom GmbH, Essen, Germany) and CJ-PK (benzylsulphonyl-D-seryl-carbobenzoxylsyl-4-amidinobenzylamide, Haemochrom GmbH, Essen, Germany). Research samples were available of DX-9065a ((+)-(2S)-2-[4-[[3S)-1-acetimidoyl-3-pyrrodinyl]oxy]phenyl]-3-[7-amidino-2-naphthyl]propanic acid, Daiichi Pharmaceutical Company Ltd., Tokyo, Japan), and Otamixaban (2-(R)-(3-carbamimidoylbenyzyl)-3-(R)-[4-(1-oxypyridin-4-yl)benzoylamino]-butyric acid-methylester, Sanofi-Aventis GmbH, Frankfurt, Germany), both of which are undergoing clinical tests. In order to examine the inhibitory action of these exemplarily used inhibitors on the blood coagulation factors plasma-kallikrein, VIIa, Xa, XIa and XIIa, the Ki values of the respective enzyme-inhibitor complexes were determined.
# (§3) The enzymes were produced by Haemochrom Diagnostica GmbH (Essen, D) and were dissolved in 0.154 mol/l NaCl. The substrates (Pentapharm AG, Basel, CH) were dissolved in H2O and the inhibitor was dissolved in the above-mentioned tris buffer. The following substrates were used for the individual enzymes:
# (§4) 200 μl of inhibitor solution were mixed with 25 μl of substrate for the determination and the reaction was started by the addition of 50 μl of enzyme. After a reaction time of 3-5 mins. 25 μl of acetic acid (50%) were added and the extinction was measured at 405 nm with a microplate reader (iEMS Reader MF 12401, Labsystems, Helsinki, Finland). The evaluation was carried out graphically according to Dixon (Biochem. J., 55, 170, 1953).
# (§5) The enzymes were produced by Haemochrom Diagnostica GmbH (Essen, D), and only thrombin was manufactured in our own laboratory according to Walsmann (Pharmazie 23, 401-402, 1968). All the enzymes were dissolved in 0.154 mol/l NaCl. The substrates (Pentapharm AG, Basel, CH) were dissolved in H2O and the inhibitor was dissolved in the above-mentioned tris buffer. The following substrates were used for the individual enzymes:
# as §4, with “1401,” for “12401,”
# human vein blood = assay: Storage of human vein blood after anticoagulation with inhibitor (F1+2 immunoassay)
# Protocol: In the sense of the invention anticoagulation means that the re-formation of thrombin is inhibited in the sampled blood. According to the invention thrombin re-formation is inhibited when no more than 1 nM of thrombin is re-formed in the sampled blood. As described above, the activation of prothrombin to thrombin represents an essential step in the blood coagulation cascade. In this case the prothrombin fragment 1+2 (F1+2) is released in equivalent quantities. It is therefore possible to quantify the thrombin actually formed by determining the fragment produced, thus enabling the prothrombin fragment F1+2 to be used as an indirect marker of an activation of prothrombin to thrombin. The concentration of the prothrombin fragment F1+2 formed may be determined immunologically, for example, with commercial enzyme immunoassays (for example Enzygnost F1+2 micro, Dade Behring GmbH, Marburg).
# According to the invention anticoagulation therefore means that no more than 1 nM of prothrombin fragment F1+2 is newly formed in the blood after its sampling. […] Without suitable treatment of the blood to prevent coagulation there is an increase in the concentration of the prothrombin fragment F1+2 in this example to well over 1.3 nM, within a few minutes, due to the plasmatic coagulation, i.e. the blood coagulates.
# In this experiment it was determined how long human vein blood can be stored without the formation of thrombin or activation of thrombocytes.
# For this purpose blood (9 parts) sampled from a patient was mixed with inhibitor solution (0.05 mM, 0.5 mM or 5 mM in physiological NaCl solution; 1 part). Some of the blood was stored at 25° C., the remainder in the refrigerator at 4° C. The quantity of thrombin formed was determined immunologically during storage based on the formation of the prothrombin fragment F1+2 (Enzygnost F1+2 micro, Dade Behring GmbH, Marburg). […] In this case it is irrelevant whether the blood samples were kept at room temperature (approx. 25° C.) or at 4° C.
# For this purpose blood (9 parts) sampled from a patient was mixed with inhibitor solution (0.05 mM, 0.5 mM or 5 mM in physiological NaCl solution; 1 part) and stored at room temperature (about 22±2° C.). The quantity of thrombin formed was determined immunologically during storage based on the formation of the prothrombin fragment F1+2 (Enzygnost F1+2 micro, Dade Behring GmbH, Marburg). It was shown that BAPA′ is capable of keeping anticoagulated blood uncoagulated at a concentration in the blood of 500 μM or 50 μM for more than 48 hours (Table 4). At a concentration of 5 μM BAPA′ prevents coagulation for more than 8 hours.
# Plasma-kallikrein = molecular target: T2, Plasma-kallikrein (Homo sapiens, UniProt P03952); assay: Determination of Ki values, chromogenic substrate, Dixon evaluation: plasma-kallikrein; type: biochemical; settings: 25° C., tris buffer pH 8.0, substrate Bz-Pro-Phe-Arg-pNA; read-out: Ki PK (plasma-kallikrein)
# T2 construct: purchased Haemochrom Diagnostica GmbH (Essen, D)
# T2 sequence (P03952 391-638 limits assumed): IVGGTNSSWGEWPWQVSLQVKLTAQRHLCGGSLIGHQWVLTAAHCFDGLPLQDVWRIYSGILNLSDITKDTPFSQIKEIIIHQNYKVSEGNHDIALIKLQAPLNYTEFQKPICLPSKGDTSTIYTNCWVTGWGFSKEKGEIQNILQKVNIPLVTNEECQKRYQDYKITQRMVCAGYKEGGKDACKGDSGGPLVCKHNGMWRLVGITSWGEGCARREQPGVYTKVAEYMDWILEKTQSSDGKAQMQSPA
# T2 sequence (P03952 20-390 partner limits assumed): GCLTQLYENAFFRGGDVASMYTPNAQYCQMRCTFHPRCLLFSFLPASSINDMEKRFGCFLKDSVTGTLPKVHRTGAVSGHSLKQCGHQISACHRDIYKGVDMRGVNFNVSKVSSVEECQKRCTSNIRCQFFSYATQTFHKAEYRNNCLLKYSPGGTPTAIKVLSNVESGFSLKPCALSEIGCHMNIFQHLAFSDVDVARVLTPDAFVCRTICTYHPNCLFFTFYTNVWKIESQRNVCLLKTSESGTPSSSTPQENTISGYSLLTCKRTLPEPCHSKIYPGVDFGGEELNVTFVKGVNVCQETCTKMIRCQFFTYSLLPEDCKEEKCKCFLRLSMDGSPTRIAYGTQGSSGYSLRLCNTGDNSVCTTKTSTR
# Text: In a particularly preferred embodiment the compound according to Formula (I) inhibits not only the blood coagulation factor XA but also thrombin and/or plasma kallikrein. […] Here too the Ki value stands for the dissociation constant of the respective enzyme-inhibitor complex. The determination of the Ki values of the inhibitors vis-a-vis thrombin and plasma kallikrein is preferably carried out in a similar manner to the determination, described above, of the Ki values of the inhibitors vis-a-vis the coagulation factor Xa, but in this case CH3SO2-D-HHT-gly-arg-pNA (with HHT=hexahydrothyrosin, and pNA=para-nitroaniline; sold under the commercial name Pefachrome tPA) are used as substrates in the case of thrombin and bz-pro-phe-arg-pNA (with bz=[…], and pNA=para-nitroaniline; sold under the commercial name Chromozym PK) in the case of plasma-kallikrein.
# as §2, §3, §4, §5
# as §4, with “1401,” for “12401,”
# Factor XIa = molecular target: T3, Factor XIa (Homo sapiens, UniProt P03951); assay: Determination of Ki values, chromogenic substrate, Dixon evaluation: Factor XIa; type: biochemical; settings: 25° C., tris buffer pH 8.0, substrate H-D-Lys(Cbo)-Pro-Arg-pNA
# T3 construct: purchased Haemochrom Diagnostica GmbH (Essen, D)
# T3 sequence (P03951 388-625 limits assumed): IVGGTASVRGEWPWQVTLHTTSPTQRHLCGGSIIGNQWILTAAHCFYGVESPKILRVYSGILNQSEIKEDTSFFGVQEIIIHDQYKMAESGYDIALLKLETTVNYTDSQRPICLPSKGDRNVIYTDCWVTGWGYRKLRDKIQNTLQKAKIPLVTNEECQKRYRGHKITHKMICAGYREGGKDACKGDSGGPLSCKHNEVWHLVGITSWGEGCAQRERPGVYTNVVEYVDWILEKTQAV
# T3 sequence (P03951 19-387 partner limits assumed): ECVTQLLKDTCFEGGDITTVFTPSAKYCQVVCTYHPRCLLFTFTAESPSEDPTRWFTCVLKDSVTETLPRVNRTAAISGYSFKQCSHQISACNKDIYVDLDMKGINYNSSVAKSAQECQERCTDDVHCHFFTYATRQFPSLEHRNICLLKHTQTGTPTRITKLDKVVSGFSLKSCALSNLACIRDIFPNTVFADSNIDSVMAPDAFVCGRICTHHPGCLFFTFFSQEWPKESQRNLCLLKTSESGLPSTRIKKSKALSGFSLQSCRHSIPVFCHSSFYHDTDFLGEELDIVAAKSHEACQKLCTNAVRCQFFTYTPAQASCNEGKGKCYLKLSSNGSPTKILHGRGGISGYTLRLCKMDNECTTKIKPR
# Text: as §2, §3, §4, §5
# as §4, with “1401,” for “12401,”
# Factor XIIa = molecular target: T4, Factor XIIa (Homo sapiens, UniProt P00748); assay: Determination of Ki values, chromogenic substrate, Dixon evaluation: Factor XIIa; type: biochemical; settings: 25° C., tris buffer pH 8.0, substrate H-D-HHT-Gly-Arg-pNA
# T4 construct: purchased Haemochrom Diagnostica GmbH (Essen, D)
# T4 sequence (P00748 373-615 limits assumed): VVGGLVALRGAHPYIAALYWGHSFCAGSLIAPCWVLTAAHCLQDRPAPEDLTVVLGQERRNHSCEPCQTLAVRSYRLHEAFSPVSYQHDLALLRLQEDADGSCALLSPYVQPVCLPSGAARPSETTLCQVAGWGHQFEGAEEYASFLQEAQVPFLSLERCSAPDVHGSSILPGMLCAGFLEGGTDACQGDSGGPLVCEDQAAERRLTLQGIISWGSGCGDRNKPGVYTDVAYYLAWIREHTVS
# Text: as §2, §3, §4, §5
# as §4, with “1401,” for “12401,”
# Factor Xa = molecular target: T5, Factor Xa (Homo sapiens, UniProt P00742); assay: Determination of Ki values, chromogenic substrate, Dixon evaluation: Factor Xa; type: biochemical; settings: 25° C., tris buffer pH 8.0, substrate CH3OCO-D-Cha-Gly-Arg-pNA
# T5 construct: purchased Haemochrom Diagnostica GmbH (Essen, D)
# T5 sequence (P00742 235-488 limits assumed): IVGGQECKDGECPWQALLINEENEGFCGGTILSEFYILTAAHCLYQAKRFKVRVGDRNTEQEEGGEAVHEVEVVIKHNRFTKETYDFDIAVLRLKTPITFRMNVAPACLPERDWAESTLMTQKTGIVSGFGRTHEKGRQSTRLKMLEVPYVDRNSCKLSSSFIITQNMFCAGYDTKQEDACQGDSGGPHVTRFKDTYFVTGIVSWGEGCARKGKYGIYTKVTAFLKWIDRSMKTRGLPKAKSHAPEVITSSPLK
# T5 sequence (P00742 41-179 partner limits assumed): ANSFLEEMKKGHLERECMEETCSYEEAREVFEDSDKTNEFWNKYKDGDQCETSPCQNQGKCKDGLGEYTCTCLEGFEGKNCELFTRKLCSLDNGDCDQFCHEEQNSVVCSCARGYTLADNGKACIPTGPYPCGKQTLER
# thrombin formation = assay: Inhibition of thrombin formation (prothrombin fragment F1+2) in hirudin-anticoagulated plasma after activation by kaolin; type: biochemical, human; settings: inhibitor 100 μM, 37° C.
# Protocol: In this example thrombin formation was activated in plasma anticoagulated with hirudin by the addition of kaolin and the ability of the inhibitors to inhibit thrombin formation was examined.
# Blood sampled from a patient was initially anticoagulated by means of the thrombin inhibitor hirudin. For this purpose 9 parts of blood were mixed with 1 part of hirudin solution (recombinant hirudin HBW 023, Hoechst, Frankfurt, 2000 E/ml of physiological NaCl solution), then centrifuged for 10 minutes at 1300 revolutions per minute (rpm). 900 μl of the plasma anticoagulated with hirudin, present in excess, were mixed in polypropylene tubes with 50 μl of inhibitor solution or 0.9% NaCl solution and 50 μl kaolin suspension (from APTT-Test from Roche Diagnostics, diluted 1:250 before use with physiological NaCl solution), and incubated at 37° C. with light shaking. In this case kaolin acts as a non-physiological surface which activates the blood coagulation thereby finally stimulating thrombin formation. At certain times the quantity of the thrombin formed was determined immunologically on the basis of the formation of the prothrombin fragment F1+2 (Enzygnost F1+2 micro, Dade Behring GmbH, Marburg). This determination is based on an enzyme immunoassay according to the sandwich principle. For this purpose aliquot volumes (600 μl) were anticoagulated at certain times with 0.1 M EDTA (40 μl) and kept at −20° C. To determine the concentration of the prothrombin fragment F1+2 50 μl of plasma (if necessary diluted with PBS, phosphate-buffered saline) were incubated with monoclonal antibodies against the human prothrombin fragment F1+2, which were fixed on a microtitre plate included in the test kit. After a washing stage with PBS, which was used to remove sample material not bound by the antibodies, antibodies conjugated with peroxidase were incubated against human prothrombin binding to the free F1+2 determinants. […] This was then determined photometrically at a wavelength of 492 nm. […]
# [3] = 25° C., concentration in the blood 50 μM
# [4] = 25° C., concentration in the blood 500 μM
Compound,thrombocytes showing normal propagation on plastic object carriers (thrombocytes [1]),induced aggregation relative to the initial value (thrombocytes [2]),Ki (Factor VIIa),Anticoagulation time (human vein blood; [3]),Anticoagulation time (human vein blood; [4]),Ki (Plasma-kallikrein),Ki (Factor XIa),Ki (Factor XIIa),"Anticoagulation time (human vein blood; 4° C., concentration in the blood 500 μM)","Anticoagulation time (human vein blood; 25° C., concentration in the blood 50 μM, listed as CJ-Fxa)",Ki (Factor Xa),suppression of thrombin formation after kaolin activation (thrombin formation)
"O=C(O)CC(O)(CC(=O)O)C(=O)O [citrate, trisodium citrate]",less than 10%,20 to 30 % of the initial value,–,–,–,–,–,–,–,–,–,–
CC(=N)N1CC[C@H](Oc2ccc([C@H](Cc3ccc4ccc(C(=N)N)cc4c3)C(=O)O)cc2)C1 [DX-9065a],–,–,92000 nM,5 to 7 h,7 to 12 h,530 nM,2300 nM,340 nM,–,–,–,–
"N=C(N)NCCC[C@@H](NS(=O)(=O)Cc1ccccc1)C(=O)N1CCC[C@H]1C(=O)NCc1ccc(C(=N)N)cc1 [BAPA′, benzylsulphonyl-D-arginyl-prolyl-4-amidinobenzylamide]",–,–,830 nM,–,–,–,27 nM,130 nM,–,–,–,–
"N=C(N)NCCC[C@@H](NS(=O)(=O)Cc1ccccc1)C(=O)NCC(=O)NCc1ccc(C(=N)N)cc1 [CJ-FXa, benzylsulphonyl-D-arginyl-glycyl-4-amidinobenzylamide]",–,–,9600 nM,approx. 24 h,>48 h,84 nM,800 nM,350 nM,>48 h,12 to 24 h,3.5 nM,–
benzylsulphonyl-D-seryl-carbobenzoxylsyl-4-amidinobenzylamide [CJ-PK],–,–,3800 nM,–,–,3.5 nM,250 nM,12000 nM,–,–,2900 nM,suppress thrombin formation effectively
